The values that follow come from patent US9562085B2, “Antimicrobial peptide” (priority 2013, dated 2017).

One experiment has as its system MRSA LUH14616. Put plainly: In vitro killing assay on mid-log phase bacteria, MRSA LUH14616. The conditions noted are these: MRSA LUH14616 in PBS, 1 hour at 37° C.; 90% Inhibitory Concentration, linear regression. It counts as cell-based, Staphylococcus aureus. From the text:
The clinical isolate of methicillin-resistant Staphylococcus aureus (MRSA), LUH14616 was kindly provided by Dr. S. Croes, Maastricht University Medical Center, Maastricht, Netherlands (see S.B.M.C. Croes, Microbiol. 2009; 9:229. doi: 10.1186/1471-2180-9-229) and that of mupirocine-resistant MRSA LUH15051 was a gift from Dr. M.E.O.C. Heck (Laboratory for Infectious Diseases and Screening, National Institute for Public Health and Environment, RIVM, Bilthoven, Netherlands).
Bacteria were stored at -80° C. until use. Inoculi of mid-log phase bacteria were prepared by incubating isolated MRSA colonies from blood agar plates in Tryptic Soy Broth (TSB) medium (Becton Dickinson, Le Pont de Clax, France) for 2.5 hours and then diluted to the concentration needed.
For the in vitro killing assay on mid-log phase bacteria, MRSA LUH14616 and MRSA LUH15051 were resuspended to a concentration of 1×10^6 bacteria/ml in PBS. Subsequently, 200 μl was added to a concentration range of peptides LL-37, P60.4Ac (OP-145) and P10 that were lyophilized in advance. Subsequently, the bacteria-peptide mixture was incubated for 1 hour at 37° C. To establish the killing capacity of these peptides, the suspensions were serially diluted and plated onto DST agar plates to measure viable CFU counts. IC90, IC99 and IC99.9 values are calculated by linear regression analysis.

The test system of a further experiment is S. aureus JAR. Format: cell-based. The settings on record: S. aureus JAR, concentration killing 99.9% of the bacteria, average of two experiments. The protocol: S. aureus JAR is described in Campoccia et al. (Int. J. Artif. Organs, 2008 September; 31(9):841-7).
For the in vitro killing assay with P10 variants, S. aureus JAR ([…] CFU/ml) were incubated for 2 hours at 37° C. with various concentrations of the peptides in PBS or in PBS/human plasma (1/1, v/v). […] The LC99.9 is the average value of two independent experiments.

As a reminder, the IC90 is the concentration needed for an effect of 90%. Substance “Ac-IGKEFKRIVERIKRFLRELVRPLR-NH2 (N-terminus and C-terminus assumed) [Peptide P60.4Ac, reference compound]” gave a concentration for an effect of 90% (IC90) in the experiment on MRSA LUH14616 of 0.75 µM.

On to “Ac-LAREYKKIVEKLKRWLRQVARTLR-NH2 [Peptide 1302-49, JLAREYKKIVEKLKRWLRQVARTLRB]”, for which the “LC99.9 (μM) (50% plasma)” value in the experiment with S. aureus JAR (2 hours at 37° C. in PBS/human plasma (1/1, v/v)) was determined as 51.2 µM. Also, in the experiment with S. aureus JAR (2 hours at 37° C. in PBS), the “LC99.9 (μM) (PBS)” value worked out at 1.6 µM.
